How the values were obtained:
HL60 = assay: Transcriptome (microarray) analysis of treated HL60 cells; assay type: cell-based, human; settings: for number of genes modulated by the three different agents: HL60 cell line, genes affected by DFO, DFX and mAb A24 together
AML cells lines = assay: CD14 and CD11b monocytic marker expression in AML cell lines; assay type: cell-based
Method: Peripheral blood cells from AML patients and healthy donors was analyzed after obtaining their written informed consent (please refer to supplementary table 2 for additional information). Peripheral blood was collected at the initial diagnosis previously to treatment administration. Mononuclear cells were separated by Ficoll-hypaque (PAA laboratories) density centrifugation and resuspended in IMDM medium (Invitrogen) supplemented with 15% fetal calf serum (FCS) (Hyclone), 100 ng/ml Stem Cell Factor (SCF), 10 ng/ml Interleukin 3 (IL-3) and 25 ng/ml FLT3-L (all purchased from R&D Systems). HL60 and U937 cell lines were a kind gift from J. M. Cayuela (Saint-Louis Hospital, Paris). Cells were cultured in RPMI-1640 medium (Invitrogen) supplemented with 5% FCS and antibiotics.
The ability of iron deprivation to override blockade of AML cells differentiation was tested. In AML cells lines, monocytic markers CD14 and CD11b (which are induced by the vitamin D3 (VD), a monocytic differentiating agent) were induced by iron deprivation by A24 mAb, DFO and DFX. Induction of cell surface markers was accompanied by characteristic cytological modifications of monocytes. Iron deprivation induced cytoplasm enlargement, loss of cytoplasm basophilia and azurophilic granules. […]

c-Jun, c-Fos = assay: c-Jun and c-Fos expression in HL60 cells; assay type: cell-based; settings: VD 250 nM, A24 10 μg/ml, DFO 5 μM, DFX 3 μM
Method: FIG. 4 depicts the change in c-Jun expression following treatment of HL60 cells with vitamin D3 (VD, 250 nM), A24 (A24, 10 μg/ml), deferoxamine (DFO, 5 μM) or deferasirox (DFX, 3 μM).
FIG. 5 depicts the c-Fos and c-Jun mRNA levels (evaluated by quantitative RT-PCR and normalized to GAPDH mRNA levels) in HL60 cells treated for 48 h with A24 (A24, 10 μg/ml); deferoxamine (DFO, 5 μM); or deferasirox (DFX, 3 μM) (mean±SEM, n=4).
Total RNA was extracted using Nucleospin RNA II (Macherey-Nagel). Following DNAse treatment, first-strand cDNA was synthesized using a SuperScript II reverse transcriptase (Invitrogen). Quantitative real-time PCR was performed with a Chromo-IV PCR System (MJ Research) and PCR products were quantified using SybrGreen Technology (Jumpstart mastermix, Sigma Aldrich). Results of real-time quantitative PCR were interpreted using the delta-delta Ct method (Livak et al. (2001) Methods 25:402-408). The complete list of primer sequences used is available in supplementary data section, table 4.
By comparing (with a non-supervised analysis) the pattern of genes induced by VD and iron-chelating agents, a high similarity was found among modulated genes. Thirty of the 105 genes modulated by iron deprivation were shared with VD modified genes. This finding underscores the potential similarities between both differentiation approaches. […]

[1] = test system: squamous cell carcinoma and prostatic adenocarcinoma; settings: in vitro; cited from earlier work

Structure (SMILES): CC(=O)N(O)CCCCCNC(=O)CCC(=O)N(O)CCCCCNC(=O)CCC(=O)N(O)CCCCCN [DFO]
- number of genes modulated by the three different agents (HL60): 105

Structure (SMILES): O=C(O)c1ccc(-n2nc(-c3ccccc3O)nc2-c2ccccc2O)cc1 [DFX, 4-[3,5-bis(2-hydroxyphenyl)-[1,2,4]triazol-1-yl]benzoic acid]
- monocytic markers CD14 and CD11b (AML cells lines): induced
- number of genes modulated by the three different agents (HL60): 105

Structure (SMILES): C=C1CC[C@H](O)C/C1=C/C=C1\CCC[C@]2(C)[C@@H]([C@H](C)CCCC(C)C)CC[C@@H]12 [VD, cholecalciferol]
- monocytic markers CD14 and CD11b (AML cells lines): induced
- markers of granulocyte differentiation / neutrophils (ELA2, PRTN3, CLC, AZU) (HL60; HL60, gene expression): down-regulated
- markers of monocytes or activated macrophages (SERPINB8, ITGB2, TREML2, ITGAM) (HL60; HL60, gene expression): up-regulated
- similarity of genes targeted by iron deprivation with VD (HL60; genome screening): 30%
- genes of the 105 modulated by iron deprivation shared with VD modified genes (HL60; non-supervised analysis): Thirty
- c-Jun gene expression (c-Jun, c-Fos): induced

Structure (SMILES): C=C1/C(=C\C=C2/CCC[C@]3(C)[C@@H]([C@H](C)CCCC(C)(C)O)CC[C@@H]23)C[C@@H](O)C[C@@H]1O [calcitriol, 1α,25-dihydroxycholecalciferol D3]
- antiproliferative activity [1]: exhibits antiproliferative activity
